What was measured:
[1] = target: T1, p110 alpha PI3K (Homo sapiens, UniProt P42336); assay: p110α (alpha) PI3K binding assay (fluorescence polarization); conditions: read-out: IC50 (inhibition of PI3K alpha, p110 alpha)
T1 construct: purchased Upstate Cell Signaling Solutions, Charlottesville, Va
Procedure: Determination of the PI3 kinase activity of a Formula I compound is possible by a number of direct and indirect detection methods. Certain exemplary compounds described herein were assayed for their p110α (alpha), and other isoform, PI3K binding activity (Example 601) and in vitro activity against tumor cells (Example 602).
Binding Assays: Initial polarization experiments were performed on an Analyst HT 96-384 (Molecular Devices Corp, Sunnyvale, Calif.). […] After an incubation time of 30 minutes at room temperature, the reactions were stopped by the addition of GRP-1 and PIP3-TAMRA probe (Echelon-Inc., Salt Lake City, Utah.) 100 nM and 5 nM final concentrations respectively. Read with standard cut-off filters for the rhodamine fluorophore (λex=530 nm; λem=590 nm) in 384-well black low volume Proxiplates (PerkinElmer, Wellesley, Mass.) Fluorescence polarization values were plotted as a function of the protein concentration, and the EC50 values were obtained by fitting the data to a 4-parameter equation using KaleidaGraph software (Synergy software, Reading, Pa.). This experiment also establishes the appropriate protein concentration to use in subsequent competition experiments with inhibitors.
Inhibitor IC50 values were determined by addition of the 0.04 mg/mL p110 alpha PI3K (final concentration) combined with PIP2 ([…] final concentration) to wells containing 1:3 serial dilutions of the antagonists in a final concentration of […] ATP (Cell Signaling Technology, Inc., Danvers, Mass.) in the polarization buffer. After an incubation time of 30 minutes at room temperature, the reactions were stopped by the addition of GRP-1 and PIP3-TAMRA probe (Echelon-Inc., Salt Lake City, Utah.) 100 nM and 5 nM final concentrations respectively. Read with standard cut-off filters for the rhodamine fluorophore (λex=530 nm; λem=590 nm) in 384-well black low volume proxi plates (PerkinElmer, Wellesley, Mass.) Fluorescence polarization values were plotted as a function of the antagonist concentration, and the IC50 values were obtained by fitting the data to a 4-parameter equation in Assay Explorer software (MDL, San Ramon, Calif.).
Alternatively, inhibition of PI3K was determined in a radiometric assay using purified, recombinant enzyme and ATP at a concentration of 1 uM. The Formula I compound was serially diluted in 100% DMSO. The kinase reaction was incubated for 1 hr at room temperature, and the reaction was terminated by the addition of PBS. IC50 values were subsequently determined using sigmoidal dose-response curve fit (variable slope).

[2] = test system: EVSA-T; assay: CellTiter-Glo cell proliferation assay, EVSA-T; type: cell-based; conditions: Homo sapiens, Breast, mutation status PTEN
Procedure: (§1) The in vitro potency of Formula I exemplary compounds was measured by the cell proliferation assay, CellTiter-Glo® Luminescent Cell Viability Assay, commercially available from Promega Corp., Madison, Wis. (Example 602). This homogeneous assay method is based on the recombinant expression of Coleoptera luciferase (U.S. Pat. Nos. 5,583,024; 5,674,713; 5,700,670) and determines the number of viable cells in culture based on quantitation of the ATP present, an indicator of metabolically active cells (Crouch et al (1993) J. Immunol. Meth. 160:81-88; U.S. Pat. No. 6,602,677). The CellTiter-Glo® Assay was conducted in 96 or 384 well format, making it amenable to automated high-throughput screening (HTS) (Cree et al (1995) AntiCancer Drugs 6:398-404). The homogeneous assay procedure involves adding the single reagent (CellTiter-Glo® Reagent) directly to cells cultured in serum-supplemented medium. Cell washing, removal of medium and multiple pipetting steps are not required. The system detects as few as 15 cells/well in a 384-well format in 10 minutes after adding reagent and mixing.
(§2) Efficacy of Formula I compounds were measured by a cell proliferation assay employing the following protocol (Promega Corp. Technical Bulletin TB288; Mendoza et al (2002) Cancer Res. 62:5485-5488):
(§3) 1. An aliquot of 100 μl of cell culture containing about 10^4 cells (PC3, Detroit562, or MDAMB361.1) in medium was deposited in each well of a 384-well, opaque-walled plate.
(§4) 2. Control wells were prepared containing medium and without cells.
(§5) 3. The compound was added to the experimental wells and incubated for 3-5 days.
(§6) 4. The plates were equilibrated to room temperature for approximately 30 minutes.
(§7) 5. A volume of CellTiter-Glo Reagent equal to the volume of cell culture medium present in each well was added.
(§8) 6. The contents were mixed for 2 minutes on an orbital shaker to induce cell lysis.
(§9) 7. The plate was incubated at room temperature for 10 minutes to stabilize the luminescence signal.
(§10) 8. Luminescence was recorded and reported in graphs as RLU=relative luminescence units.
(§11) Alternatively, cells were seeded at optimal density in a 96 well plate and incubated for 4 days in the presence of test compound. Alamar Blue™ was subsequently added to the assay medium, and cells were incubated for 6 hr before reading at 544 nm excitation, 590 nm emission. EC50 values were calculated using a sigmoidal dose response curve fit. […] It is commonly used as a measure of drug potency.
(§12) The anti-proliferative effects of Formula I exemplary compounds were measured by the CellTiter-Glo® Assay against various tumor cell lines, including the following: […]

[3] = test system: AU565; assay: CellTiter-Glo cell proliferation assay, AU565; type: cell-based; conditions: Homo sapiens, Breast, mutation status WT
Procedure: as §1, §2, §3, §4, §5, §6, §7, §8, §9, §10, §11, §12

[4] = test system: MDA-MB-361.1; assay: CellTiter-Glo cell proliferation assay, MDA-MB-361.1; type: cell-based; conditions: Breast, mutation status PI3K
Procedure: as §1, §2, §3, §4, §5, §6, §7, §8, §9, §10, §11, §12

[5] = test system: T47D; assay: CellTiter-Glo cell proliferation assay, T47D; type: cell-based; conditions: Homo sapiens, Breast, mutation status PI3K
Procedure: as §1, §2
1. […]
as §9, §10
(§13) Alternatively, cells were seeded at optimal density in a 96 well plate and incubated for 4 days in the presence of test compound. Alamar Blue™ was subsequently added to the assay medium, and cells were incubated for 6 hr before reading at 544 nm excitation, 590 nm emission. EC50 values were calculated using a sigmoidal dose response curve fit. […]
as §12

[6] = test system: H520; assay: CellTiter-Glo cell proliferation assay, H520; type: cell-based; conditions: Homo sapiens, NCI-H520, Lung(NSCLC), mutation status PTEN
Procedure: (§14) The in vitro potency of Formula I exemplary compounds was measured by the cell proliferation assay, CellTiter-Glo® Luminescent Cell Viability Assay, commercially available from Promega Corp., Madison, Wis. (Example 602). This homogeneous assay method is based on the recombinant expression of Coleoptera luciferase (U.S. Pat. Nos. 5,583,024; 5,674,713; 5,700,670) and determines the number of viable cells in culture based on quantitation of the ATP present, an indicator of metabolically active cells (Crouch et al (1993) J. Immunol. Meth. 160:81-88; U.S. Pat. No. 6,602,677). […]
(§15) Efficacy of Formula I compounds were measured by a cell proliferation assay employing the following protocol (Promega Corp. Technical Bulletin TB288; Mendoza et al (2002) Cancer Res. 62:5485-5488): […]
as §9, §10, §13

[7] = test system: U87MG; assay: CellTiter-Glo cell proliferation assay, U87MG; type: cell-based; conditions: Homo sapiens, U-87 MG, Glioma, mutation status PTEN
Procedure: as §14, §15, §9, §10, §13

[8] = test system: H2122; assay: CellTiter-Glo cell proliferation assay, H2122; type: cell-based; conditions: Homo sapiens, NCI-H2122, Lung(NSCLC), mutation status K-RAS
Procedure: as §1, §2
1. […]
as §9, §10, §13, §12

[9] = test system: MDST8; assay: CellTiter-Glo cell proliferation assay, MDST8; type: cell-based; conditions: Colon, mutation status PTEN
Procedure: as §14, §15, §9, §10, §13

[10] = test system: HCC1954; assay: CellTiter-Glo cell proliferation assay, HCC1954; type: cell-based; conditions: Homo sapiens, Breast, mutation status PI3K
Procedure: as §1, §2
1. […]
as §9, §10, §13, §12

[11] = test system: KPL4; assay: CellTiter-Glo cell proliferation assay, KPL4; type: cell-based; conditions: Breast, mutation status PI3K
Procedure: as §1, §2
1. […]
as §9, §10, §13, §12

[12] = test system: KM12; assay: CellTiter-Glo cell proliferation assay, KM12; type: cell-based; conditions: Homo sapiens, Colon, mutation status PTEN
Procedure: as §14, §15, §9, §10, §13

[13] = test system: PC3; assay: CellTiter-Glo cell proliferation assay, PC3; type: cell-based; conditions: Homo sapiens, PC-3, Prostate, mutation status PTEN
Procedure: as §1, §2
1. […]
as §9, §10, §13, §12

[14] = test system: MFM223; assay: CellTiter-Glo cell proliferation assay, MFM223; type: cell-based; conditions: Homo sapiens, MFM-223, Breast, mutation status PI3K
Procedure: as §1, §2
1. […]
as §9, §10, §13, §12

[15] = test system: BT474; assay: CellTiter-Glo cell proliferation assay, BT474; type: cell-based; conditions: Homo sapiens, BT-474, Breast, mutation status PI3K(amped)
Procedure: as §1, §2
1. […]
as §9, §10, §13, §12

[16] = test system: SKBR3; assay: CellTiter-Glo cell proliferation assay, SKBR3; type: cell-based; conditions: Homo sapiens, SK-BR-3, Breast, mutation status WT
Procedure: as §14, §15, §9, §10, §13

T1 sequence (P42336 whole entry): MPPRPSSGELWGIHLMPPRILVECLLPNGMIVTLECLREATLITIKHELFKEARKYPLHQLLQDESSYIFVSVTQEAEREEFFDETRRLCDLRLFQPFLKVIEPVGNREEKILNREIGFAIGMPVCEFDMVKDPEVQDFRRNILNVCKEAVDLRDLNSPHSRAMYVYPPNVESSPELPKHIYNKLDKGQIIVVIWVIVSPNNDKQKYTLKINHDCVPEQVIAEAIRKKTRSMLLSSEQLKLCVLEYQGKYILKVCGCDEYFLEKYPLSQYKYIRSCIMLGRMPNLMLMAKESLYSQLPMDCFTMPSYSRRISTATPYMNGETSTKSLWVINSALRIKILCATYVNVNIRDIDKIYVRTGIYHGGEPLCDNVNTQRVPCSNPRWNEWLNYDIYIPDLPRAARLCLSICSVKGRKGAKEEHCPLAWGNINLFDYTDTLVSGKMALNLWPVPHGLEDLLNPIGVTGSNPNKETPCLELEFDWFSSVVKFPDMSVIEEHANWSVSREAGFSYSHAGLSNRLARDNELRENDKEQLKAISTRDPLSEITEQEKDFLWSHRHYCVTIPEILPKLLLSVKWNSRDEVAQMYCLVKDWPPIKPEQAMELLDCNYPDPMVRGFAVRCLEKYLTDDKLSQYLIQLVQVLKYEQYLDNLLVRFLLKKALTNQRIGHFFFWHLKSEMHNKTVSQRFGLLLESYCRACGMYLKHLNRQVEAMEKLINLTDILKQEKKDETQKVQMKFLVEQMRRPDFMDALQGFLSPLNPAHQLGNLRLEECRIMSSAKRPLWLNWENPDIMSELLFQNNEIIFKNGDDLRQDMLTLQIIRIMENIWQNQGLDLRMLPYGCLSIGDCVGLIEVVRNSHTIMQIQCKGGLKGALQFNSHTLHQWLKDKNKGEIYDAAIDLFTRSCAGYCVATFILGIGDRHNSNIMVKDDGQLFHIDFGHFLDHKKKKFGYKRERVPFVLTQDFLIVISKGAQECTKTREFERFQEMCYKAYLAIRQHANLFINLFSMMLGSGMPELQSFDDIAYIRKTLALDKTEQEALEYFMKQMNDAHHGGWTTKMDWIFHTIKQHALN
T1 sequence (P27986 whole entry partner): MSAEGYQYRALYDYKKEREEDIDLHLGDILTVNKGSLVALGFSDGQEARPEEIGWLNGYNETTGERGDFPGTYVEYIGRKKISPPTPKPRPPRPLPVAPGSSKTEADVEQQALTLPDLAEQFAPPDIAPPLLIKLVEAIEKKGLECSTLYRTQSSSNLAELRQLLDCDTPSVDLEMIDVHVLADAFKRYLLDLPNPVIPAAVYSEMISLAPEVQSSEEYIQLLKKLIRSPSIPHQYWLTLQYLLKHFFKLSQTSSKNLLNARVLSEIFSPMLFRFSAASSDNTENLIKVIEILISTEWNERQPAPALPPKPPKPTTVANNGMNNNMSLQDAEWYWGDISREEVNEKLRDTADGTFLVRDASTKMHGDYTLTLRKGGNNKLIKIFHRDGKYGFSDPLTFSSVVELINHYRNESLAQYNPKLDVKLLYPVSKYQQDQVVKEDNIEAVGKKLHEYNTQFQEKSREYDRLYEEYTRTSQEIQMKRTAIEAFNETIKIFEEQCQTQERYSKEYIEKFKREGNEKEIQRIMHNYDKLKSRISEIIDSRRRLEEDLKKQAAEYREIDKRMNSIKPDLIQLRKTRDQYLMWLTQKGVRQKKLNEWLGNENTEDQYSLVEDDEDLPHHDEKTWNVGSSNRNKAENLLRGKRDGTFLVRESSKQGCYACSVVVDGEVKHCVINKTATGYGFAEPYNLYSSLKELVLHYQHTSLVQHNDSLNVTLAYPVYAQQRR

## O=C(c1nc2c(s1)CCOc1cc(-c3cn[nH]c3)ccc1-2)N1CCC[C@@H]1CO [compound 101, ((R)-2-Hydroxymethyl-pyrrolidin-1-yl)-[8-(1H-pyrazol-4-yl)-4,5-dihydro-6-oxa-3-thia-1-aza-benzo[e]azulen-2-yl]-methanone]
[1]
  IC50: 31 nM

## CC(C)N(C)C(=O)c1nc2c(s1)CCOc1cc(-c3cn[nH]c3)ccc1-2 [compound 102, 8-(1H-Pyrazol-4-yl)-4,5-dihydro-6-oxa-3-thia-1-aza-benzo[e]azulene-2-carboxylic acid isopropyl-methyl-amide]
[1]
  IC50: 5.1 nM

## CC(C)N(CCO)C(=O)c1nc2c(s1)CCOc1cc(-c3cn[nH]c3)ccc1-2 [compound 103, 8-(1H-Pyrazol-4-yl)-4,5-dihydro-6-oxa-3-thia-1-aza-benzo[e]azulene-2-carboxylic acid (2-hydroxy-ethyl)-isopropyl-amide]
[1]
  IC50: 1.8 nM

## O=C(NCc1ccc2c(c1)OCCc1sc(-c3ncnn3CC(F)(F)F)nc1-2)c1cn[nH]c1 [compound 106, 1H-Pyrazole-4-carboxylic acid {2-[2-(2,2,2-trifluoro-ethyl)-2H-[1,2,4]triazol-3-yl]-4,5-dihydro-6-oxa-3-thia-1-aza-benzo[e]azulen-8-ylmethyl}-amide]
[1]
  IC50: 5.7 nM

## O=S1(=O)CCN(CCNc2ccc3c(n2)-c2sc(-c4ncnn4-c4ccc(F)cc4F)cc2CCO3)CC1 [compound 109, {2-[2-(2,4-Difluoro-phenyl)-2H-[1,2,4]triazol-3-yl]-4,5-dihydro-6-oxa-1-thia-10-aza-benzo[e]azulen-9-yl}-[2-(1,1-dioxo-1S-thiomorpholin-4-yl)-ethyl]-amine]
[1]
  IC50: 1.3 nM

## CNC(=O)c1ccc2c(c1)OCCc1cc(-c3nc(N)nn3-c3ccc(F)cc3F)sc1-2 [compound 127, 2-(3-amino-1-(2,4-difluorophenyl)-1H-1,2,4-triazol-5-yl)-N-methyl-4,5-dihydrobenzo[b]thieno[2,3-d]oxepine-8-carboxamide]
[2]
  EC50: 147 nM
[3]
  EC50: 37 nM
[4]
  EC50: 60 nM
[1]
  IC50: 0.05 nM

## CC(C)n1ncnc1-c1cc2c(s1)-c1ccc(-c3cccc(C(=O)O)c3)cc1OCC2 [compound 147, 3-(2-(1-isopropyl-1H-1,2,4-triazol-5-yl)-4,5-dihydrobenzo[b]thieno[2,3-d]oxepin-8-yl)benzoic acid]
[1]
  IC50: 21 nM

## Nc1nc(-c2cc3c(s2)-c2ccc(C(=O)NCCO)cc2OCC3)n(-c2ccc(F)cc2F)n1 [compound 151, 2-(3-amino-1-(2,4-difluorophenyl)-1H-1,2,4-triazol-5-yl)-N-(2-hydroxyethyl)-4,5-dihydrobenzo[b]thieno[2,3-d]oxepine-8-carboxamide]
[1]
  IC50: 0.2 nM

## CN(CCC#N)C(=O)c1nc2c(s1)CCOc1cc(-c3cn[nH]c3)ccc1-2 [compound 153, 8-(1H-Pyrazol-4-yl)-4,5-dihydro-6-oxa-3-thia-1-aza-benzo[e]azulene-2-carboxylic acid (2-cyano-ethyl)-methyl-amide]
[1]
  IC50: 58 nM

## CC(C)n1ncnc1-c1nc2c(s1)CCOc1cc(C3CCNCC3)ccc1-2 [compound 375, 2-(2-isopropyl-2H-[1,2,4]triazol-3-yl)-8-piperidin-4-yl-4,5-dihydro-6-oxa-3-thia-1-aza-benzo[e]azulene]
[5]
  EC50: 145 nM
[6]
  EC50: 226 nM
[2]
  EC50: 225 nM
[3]
  EC50: 241 nM
[4]
  EC50: 1090 nM
[7]
  EC50: 858 nM
[8]
  EC50: 1170 nM
[9]
  EC50: 1740 nM
[10]
  EC50: 348 nM
[11]
  EC50: 151 nM
[12]
  EC50: 1750 nM
[13]
  EC50: 145 nM
[14]
  EC50: 739 nM
[15]
  EC50: 428 nM

## Cc1nc(-c2nc3c(s2)CCOc2cc(-c4cn(CCO)cn4)ccc2-3)n(C(C)C)n1 [compound 440, 2-{4-[2-(2-Isopropyl-5-methyl-2H-[1,2,4]triazol-3-yl)-4,5-dihydro-6-oxa-3-thia-1-aza-benzo[e]azulen-8-yl]-imidazol-1-yl}-ethanol]
[16]
  EC50: 1730 nM
[5]
  EC50: 569 nM
[2]
  EC50: 4930 nM
[3]
  EC50: 1240 nM
[4]
  EC50: 2610 nM
[8]
  EC50: 10000 nM
[10]
  EC50: 1620 nM
[11]
  EC50: 338 nM
[13]
  EC50: 3030 nM
[14]
  EC50: 4410 nM
[15]
  EC50: 1630 nM

## CC(C)n1nc(N)nc1-c1nc2c(s1)CCOc1cc(C3CN(CCS(C)(=O)=O)C3)ccc1-2 [compound 463, 1-Isopropyl-5-{8-[1-(2-methanesulfonyl-ethyl)-azetidin-3-yl]-4,5-dihydro-6-oxa-3-thia-1-aza-benzo[e]azulen-2-yl}-1H-[1,2,4]triazol-3-ylamine]
[5]
  EC50: 185 nM
[6]
  EC50: 972 nM
[2]
  EC50: 746 nM
[3]
  EC50: 225 nM
[4]
  EC50: 855 nM
[7]
  EC50: 2090 nM
[8]
  EC50: 542 nM
[9]
  EC50: 1720 nM
[10]
  EC50: 340 nM
[11]
  EC50: 103 nM
[12]
  EC50: 321 nM
[13]
  EC50: 185 nM
[14]
  EC50: 559 nM
[15]
  EC50: 638 nM
